In US9833497B2, “Human originated EGF domain proteins and use of the same” (CHENGDU SOURCEBIO LIMITED-LIABILITY COMPANY, priority 2013, dated 2017):

Assays:
Assay type in all cases: cell-based
[1] = tested on: E. coli DH5α; experiment: Antibacterial activity: MIC and growth curve against E. coli DH5α in 96-well plate; conditions: minimal inhibitory concentration against E. coli DH5α; 96-well plate, 5×10^5 CFU/mL, 37° C., judged after 8 h
Summary of the method: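 MIC taken as lowest protein level with no bacterial growth, tracked by A600 every 30 min during 37 °C, 175 rpm culture. Two-fold protein series 50-12.5 μg/mL final, triplicate wells, against 5×10^5 CFU/mL of LB-washed mid-log cells.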

[2] = tested on: Serratia marcescens; experiment: MIC against Gram-negative bacteria: Serratia marcescens; conditions: 5×10^5 CFU/mL
Summary of the method: (§1)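 The recombinant human-originated EGF domain proteins were serially diluted two-fold against bacteria at 5×10^5 CFU/mL in LB medium. After shaken incubation at 37° C, the lowest concentration with no bacterial growth was recorded as the MIC.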

[3] = tested on: E. coli BL21; experiment: MIC against Gram-negative bacteria: E. coli BL21; conditions: 5×10^5 CFU/mL
Summary of the method: as §1

[4] = tested on: Aeromonas hydrophila; experiment: MIC against Gram-negative bacteria: Aeromonas hydrophila; conditions: 5×10^5 CFU/mL
Summary of the method: as §1

[5] = tested on: Pseudomonas aeruginosa; experiment: MIC against Gram-negative bacteria: Pseudomonas aeruginosa; conditions: 5×10^5 CFU/mL
Summary of the method: as §1

[6] = tested on: Enterobacter cloacae; experiment: MIC against Gram-negative bacteria: Enterobacter cloacae; conditions: 5×10^5 CFU/mL
Summary of the method: as §1

[7] = tested on: Citrobacter diversus; experiment: MIC against Gram-negative bacteria: Citrobacter diversus; conditions: 5×10^5 CFU/mL
Summary of the method: as §1

[8] = tested on: Proteus mirabilis; experiment: MIC against Gram-negative bacteria: Proteus mirabilis; conditions: 5×10^5 CFU/mL
Summary of the method: as §1

[9] = tested on: Klebsiella pneumonia; experiment: MIC against Gram-negative bacteria: Klebsiella pneumonia; conditions: 5×10^5 CFU/mL
Summary of the method: as §1

[10] = tested on: Moraxella catarrhalis; experiment: MIC against Gram-negative bacteria: Moraxella catarrhalis; conditions: 5×10^5 CFU/mL
Summary of the method: as §1

[11] = tested on: Proteus vulgaris; experiment: MIC against Gram-negative bacteria: Proteus vulgaris; conditions: 5×10^5 CFU/mL
Summary of the method: as §1

[12] = S. marcescens, 10 h cultivation at 37° C.
[13] = E. coli BL21, 10 h cultivation at 37° C.
[14] = A. hydrophila, 10 h cultivation at 37° C.
[15] = P. aeruginosa, 10 h cultivation at 37° C.
[16] = E. cloacae, 10 h cultivation at 37° C.
[17] = C. diversus, 10 h cultivation at 37° C.
[18] = P. mirabilis, 10 h cultivation at 37° C.
[19] = K. pneumonia, 10 h cultivation at 37° C.
[20] = M. catarrhalis, 10 h cultivation at 37° C.
[21] = P. vulgaris, 10 h cultivation at 37° C.
[22] = Serratia marcescens, 10 h cultivation at 37° C.
[23] = Aeromonas hydrophila, 10 h cultivation at 37° C.
[24] = Pseudomonas aeruginosa, 10 h cultivation at 37° C.
[25] = Enterobacter cloacae, 10 h cultivation at 37° C.
[26] = Citrobacter diversus, 10 h cultivation at 37° C.
[27] = Proteus mirabilis, 10 h cultivation at 37° C.
[28] = Klebsiella pneumonia, 10 h cultivation at 37° C.
[29] = Moraxella catarrhalis, 10 h cultivation at 37° C.
[30] = Proteus vulgaris, 10 h cultivation at 37° C.

| Substance | MIC [1] [µg/mL] | MIC against S. marcescens [2, 22] [µg/mL] | MIC against E. coli BL21 [3, 13] [µg/mL] | MIC against A. hydrophila [4, 23] [µg/mL] | MIC against P. aeruginosa [5, 24] [µg/mL] | MIC against E. cloacae [6, 25] [µg/mL] | MIC against C. diversus [7, 26] [µg/mL] | MIC against P. mirabilis [8, 27] [µg/mL] | MIC against K. pneumonia [9, 28] [µg/mL] | MIC against M. catarrhalis [10, 29] [µg/mL] | MIC against P. vulgaris [11, 30] [µg/mL] | further results |
| --- | --- | --- | --- | --- | --- | --- | --- | --- | --- | --- | --- | --- |
| PRT428 (DVNECWASPGRLCQHTCENTLGSYRCSCASGFLLAADGKRCE; listed as Homo sapiens) | 50 |  |  |  |  |  |  |  |  |  |  | MIC [2, 12]: 12.5 µg/mL; MIC [3, 13]: 25 µg/mL; MIC [4, 14]: 25 µg/mL; MIC [5, 15]: 12.5 µg/mL; MIC [6, 16]: 50 µg/mL; MIC [7, 17]: 12.5 µg/mL; MIC [8, 18]: 12.5 µg/mL; MIC [9, 19]: 25 µg/mL; MIC [10, 20]: 50 µg/mL; MIC [11, 21]: 50 µg/mL |
| PRT1380 (SQRSCPRGCSQRGRCEGGRCVCDPGYTGDDC; listed as Homo sapiens) | 25 | 50 | 50 | 50 | 12.5 | 12.5 | 12.5 | 50 | 50 | 50 | 50 |  |
| PRT1364 (GELKCPNGCSGHGRCVNGQCVCDEGYTGEDCS; listed as Homo sapiens) | 25 | 12.5 | 12.5 | 25 | 25 | 25 | 12.5 | 12.5 | 50 | 12.5 | 12.5 |  |
| PRT824 (YGPGCEQLCGCLNGGSCDAATGACRCPTGFLGTDCN; listed as Homo sapiens) | 12.5 |  |  |  |  |  |  |  |  |  |  | MIC (μg/mL) S. marcescens [2, 12]: 25 µg/mL; MIC (μg/mL) E. coli BL21 [3, 13]: 25 µg/mL; MIC (μg/mL) A. hydrophila [4, 14]: 25 µg/mL; MIC (μg/mL) P. aeruginosa [5, 15]: 50 µg/mL; MIC (μg/mL) E. cloacae [6, 16]: 12.5 µg/mL; MIC (μg/mL) C. diversus [7, 17]: 50 µg/mL; MIC (μg/mL) P. mirabilis [8, 18]: 12.5 µg/mL; MIC (μg/mL) K. pneumonia [9, 19]: 25 µg/mL; MIC (μg/mL) M. catarrhalis [10, 20]: 25 µg/mL; MIC (μg/mL) P. vulgaris [11, 21]: 50 µg/mL |
| PRT1411 (SVDNCPSNCYGNGDCISGTCHCFLGFLGPDCG; listed as Homo sapiens) | 12.5 | 12.5 | 25 | 12.5 | 12.5 | 12.5 | 12.5 | 12.5 | 25 | 12.5 | 25 |  |
| PRT554 (CNCESDFTDGTCEDLTGRCYCRPNFSGERCDVCAEGFTGFPSCYPT; listed as Homo sapiens) | 12.5 |  |  |  |  |  |  |  |  |  |  | MIC against S. marcescens ([2]; 96-well plate, 37° C., 10 h): 25 µg/mL; MIC against E. coli BL21 ([3]; 96-well plate, 37° C., 10 h): 50 µg/mL; MIC against A. hydrophila ([4]; 96-well plate, 37° C., 10 h): 12.5 µg/mL; MIC against P. aeruginosa ([5]; 96-well plate, 37° C., 10 h): 12.5 µg/mL; MIC against E. cloacae ([6]; 96-well plate, 37° C., 10 h): 25 µg/mL; MIC against C. diversus ([7]; 96-well plate, 37° C., 10 h): 25 µg/mL; MIC against P. mirabilis ([8]; 96-well plate, 37° C., 10 h): 25 µg/mL; MIC against K. pneumonia ([9]; 96-well plate, 37° C., 10 h): 50 µg/mL; MIC against M. catarrhalis ([10]; 96-well plate, 37° C., 10 h): 50 µg/mL; MIC against P. vulgaris ([11]; 96-well plate, 37° C., 10 h): 12.5 µg/mL |
